This assay concerns human colonic cancer cells (SWlll6). Description: growth-inhibitory effect on human colonic cancer cells, dye exclusion method. The class given is cell-based. As to the method:
The growth-inhibitory effects of the compound of the present invention on mouse colonic cancer cells (Colon 26) and human colonic cancer cells (SWlll6) were examined. A 96-well plate was inoculated with mouse colonic cancer cells at a ratio of 1.5 x 10³ cells per well, while another 96-well plate was inoculated with human colonic cancer cells at a ratio of 3.0 x 10³ per well. These cells were incubated in an incubator at 37°C under 5 % CO₂ for 24 hours. Then the compound of the present invention was added thereto at various concentrations. Cells in each well were counted by the dye exclusion method 65 hours and 96 hours after the addition to thereby evaluate the growth-inhibitory effect of the test compound on the mouse colonic cancer cells and that on the human colonic cancer cells.

≈ marks a conversion by molar mass, not a printed value.

As to `CCC1C=CC=CCC(C)C(O)C(C)(O)C(=O)C(C)C(O)C(C)C(=O)C(C)C(O)C(C)C=CC(=O)OC2C(C)C(CC1)OC1(OC(CC(C)O)C(C)CC1=O)C2CC` (stereo not drawn) [NK86-0279], the inhibition at 0.0061 µg/mL (Homo sapiens, SW 1116, SWlll6, 0.0061 µg/ml, read-out: Growth-inhibitory ratio) came to 33.3%. In addition, under “Homo sapiens, SW 1116, SWlll6, 0.024 µg/ml, read-out: Growth-inhibitory ratio”, the inhibition at 0.024 µg/mL was 51.7%. Further, for the setting “Homo sapiens, SW 1116, SWlll6, 0.098 µg/ml, read-out: Growth-inhibitory ratio”, the inhibition at 0.098 µg/mL came to 54.6%. Also, where the note is “Homo sapiens, SW 1116, SWlll6, 0.39 µg/ml, read-out: Growth-inhibitory ratio”, the inhibition at 0.39 µg/mL came to 53.5%. Further, the inhibition at 1.56 µg/mL (Homo sapiens, SW 1116, SWlll6, 1.56 µg/ml, read-out: Growth-inhibitory ratio) turned out to be 52.2%. For the setting “Homo sapiens, SW 1116, SWlll6, 6.25 µg/ml, read-out: Growth-inhibitory ratio”, the inhibition at 6.25 µg/mL was 80.8%. For the same molecule, for the setting “Homo sapiens, SW 1116, SWlll6, 25 µg/ml, read-out: Growth-inhibitory ratio”, the inhibition at 25 µg/mL was determined as 91.9%. Moreover, the inhibition at 100 µg/mL (Homo sapiens, SW 1116, SWlll6, 100 µg/ml, read-out: Growth-inhibitory ratio) was determined as 90.7%. For the same molecule, where the note is “human colonic cancer cells (SWlll6), read-out: IC₅₀”, the IC50 was 0.021 mg/L (≈ 0.0256 µM).

The values above are taken from patent publication EP0322748B1, “Antibiotic NK86-0279, process for production of the same and application of the same” (NIPPON KAYAKU KABUSHIKI KAISHA, priority 1987, dated 1989).
